From US20250154141A1 (University of Florida Research Foundation, Incorporated, priority 2021, published 2025) come the findings set out here.

What is called IC50 is the concentration needed to halve the response being measured.

Like-named read-outs stand apart in the source and are kept apart here.

Common to all, as to assay type: cell-based
One experiment deals with human platelets. The experiment in a line: Platelet toxicity assay (MTS viability). The note with it: Homo sapiens, Platelet, 48 h, Table 5; human platelets; 48 h; read-out: Platelets 48 h IC50. As for the experimental part:
Platelet-rich plasma (PRP) was purchased from Life South Community Blood Centers (Gainesville, FL, USA). PRP was transferred into a 50 mL tube containing 5 mL of the acid citrate buffer (Cat. No. sc-214744, Santa Cruz Biotechnology). To prevent clotting, prostaglandin E1 (PGE1, Cat. No. sc-201223A, Santa Cruz Biotechnology, Dallas, TX, USA) and apyrase (Cat. No. A6237, Sigma-Aldrich, St. Louis, MO, USA) were added to final concentrations of […] and 0.2 U/mL, respectively. After gently mixing the solution, platelets were pelleted by centrifugation at 1200 g for 10 min without break. Pelleted platelets were gently washed without disturbing platelets using 2 mL of HEPES Tyrode's buffer (Cat. No. PY-921WB, Boston BioProducts, Ashland, MA, USA) containing […] PGE1 and 0.2 U/mL apyrase. After washing, pellets were gently suspended in 10 mL of HEPES Tyrode's buffer containing […] PGE1 and 0.2 U/mL apyrase. Then, the platelet number was counted using a HEMAVET 950FS hematology analyzer (Drew Scientific, Inc., Oxford, CT, USA). For viability assays, the platelet number was adjusted to 2×10^8/mL in HEPES Tyrode's buffer containing […] PGE1 and 0.2 U/mL apyrase. Each treatment was given in 2 mL of the platelet suspension in 15 mL polypropylene tubes. The tubes were placed on a rotating platform at room temperature, and the viability of platelets was measured after 48 h treatment by using the MTS reagent (Cat. No. G1111, Promega, Madison, WI, USA). The data were analyzed by the GraphPad Prism 7 software for the calculation of IC50 values.

Another experiment concerns MOLT-4. Description: Cell viability assay (MTS) in MOLT-4 cells. The following applies: Homo sapiens. As for the experimental part: (§1) Acute lymphoblastic leukemia cells (MOLT-4 and RS4; 11) were incubated with increasing concentrations of Bcl-xL degraders for 48 h. Cell viability was measured by tetrazolium-based MTS assay.
Another experiment has as its system RS4; 11. The experiment in a line: Cell viability assay (MTS) in RS4; 11 cells. The note with it: for IC50: Homo sapiens. Further details: Anti-Cancer Activity IC50 (48 hr) RS4; 11: scale not given here. As for the experimental part: as §1
Setting [1] is: MOLT-4, Table 2, 48 hr, MTS, read-out: Anti-Cancer Activity IC50 (48 hr) MOLT-4.
[2] abbreviates: RS4-11, Table 2, 48 hr, MTS, read-out: Anti-Cancer Activity IC50 (48 hr) RS4, 11.
Setting [3] is: MOLT-4, 48 h, read-out: Anti-Cancer Activity IC50 (48 hr) MOLT-4.
[4] abbreviates: RS4-11, 48 h, read-out: Anti-Cancer Activity IC50 (48 hr) RS4, 11.

Take `Cc1ncsc1-c1ccc([C@H](C)NC(=O)[C@@H]2C[C@@H](O)CN2C(=O)[C@@H](NC(=O)CCCCCCC(=O)N2CCN(CC3(C)CCC(c4ccc(Cl)cc4)=C(CN4CCN(c5ccc(C(=O)NS(=O)(=O)c6ccc(N[C@H](CCN7CCC7)CSc7ccccc7)c([N+](=O)[O-])c6)cc5)CC4)C3)CC2)C(C)(C)C)cc1` (stereo partly drawn) [Compound 37, (2S,4R)-1-((2S)-2-(8-(4-((6-((4-(4-(((4-(((R)-4-(azetidin-1-yl)-1-(phenylthio)butan-2-yl)amino)-3-nitrophenyl)sulfonyl)carbamoyl)phenyl)piperazin-1-yl)methyl)-4′-chloro-4-methyl-2,3,4,5-tetrahydro-[1,1′-biphenyl]-4-yl)methyl)piperazin-1-yl)-8-oxooctanamido)-3,3-dimethylbutanoyl)-4-hydroxy-N—((S)-1-(4-(4-methylthiazol-5-yl)phenyl)ethyl)pyrrolidine-2-carboxamide]: the IC50 in the experiment with human platelets was 4.62 µM; in the experiment on MOLT-4 (setting [1]) it was under 0.02 µM; with MOLT-4 (MOLT-4, Table 5, 48 h, read-out: MOLT-4 48 h IC50), 0.02 µM; in the experiment on RS4; 11 (RS4-11, Table 5, 48 h, read-out: RS4 48 h IC50), 0.007 µM. For the same molecule, in the experiment on RS4; 11 (Table 2, 48 hr, MTS), the “Anti-Cancer Activity IC50 (48 hr) RS4; 11” value is reported as “+ +”.

In the case of `Cc1ncsc1-c1ccc([C@H](C)NC(=O)[C@@H]2C[C@@H](O)CN2C(=O)[C@@H](NC(=O)CCCC(=O)N2CCN(CC3CCN(CC4(C)CCC(c5ccc(Cl)cc5)=C(CN5CCN(c6ccc(C(=O)NS(=O)(=O)c7ccc(N[C@H](CCN8CCOCC8)CSc8ccccc8)c(S(=O)(=O)C(F)(F)F)c7)cc6)CC5)C4)CC3)CC2)C(C)(C)C)cc1` (some centres unmarked) [Compound 18], the IC50 with MOLT-4 (setting [1]) and with RS4; 11 (setting [2]) was 0.02 to 0.1 µM in each case.

Turning to `Cc1ncsc1-c1ccc([C@H](C)NC(=O)[C@@H]2C[C@@H](O)CN2C(=O)[C@@H](NC(=O)CCCNC(=O)c2ccc(N3CCN(CCN(C)CC4(C)CCC(c5ccc(Cl)cc5)=C(CN5CCN(c6ccc(C(=O)NS(=O)(=O)c7ccc(N[C@H](CCN8CCOCC8)CSc8ccccc8)c(S(=O)(=O)C(F)(F)F)c7)cc6)CC5)C4)CC3)nc2)C(C)(C)C)cc1` (some centres unmarked) [Compound 8], the IC50 in the experiment with MOLT-4 (setting [1]) and with RS4; 11 (setting [2]) was 0.02 to 0.1 µM in each case.

Turning to `Cc1ncsc1-c1ccc([C@H](C)NC(=O)[C@@H]2C[C@@H](O)CN2C(=O)[C@@H](NC(=O)CCCNC(=O)c2ccc(N3CCN(CC4(C)CCC(c5ccc(Cl)cc5)=C(CN5CCN(c6ccc(C(=O)NS(=O)(=O)c7ccc(N[C@H](CCN8CCOCC8)CSc8ccccc8)c(S(=O)(=O)C(F)(F)F)c7)cc6)CC5)C4)CC3)cc2)C(C)(C)C)cc1` (stereo partly drawn) [Compound 11, (2S,4R)-1-((2S)-2-(4-(4-(4-((4′-chloro-4-methyl-6-((4-(4-(((4-(((R)-4-morpholino-1-(phenylthio)butan-2-yl)amino)-3-((trifluoromethyl)sulfonyl)phenyl)sulfonyl)carbamoyl)phenyl)piperazin-1-yl)methyl)-2,3,4,5-tetrahydro-[1,1′-biphenyl]-4-yl)methyl)piperazin-1-yl)benzamido)butanamido)-3,3-dimethylbutanoyl)-4-hydroxy-N—((S)-1-(4-(4-methylthiazol-5-yl)phenyl)ethyl)pyrrolidine-2-carboxamide], the IC50 in the experiment with MOLT-4 (setting [1]) and with RS4; 11 (setting [2]) was 0.02 to 0.1 µM in each case.

In the case of `Cc1ncsc1-c1ccc([C@H](C)NC(=O)[C@@H]2C[C@@H](O)CN2C(=O)[C@@H](NC(=O)CCCCCCC(=O)N2CCN(C[C@]3(C)CCC(c4ccc(Cl)cc4)=C(CN4CCN(c5ccc(C(=O)NS(=O)(=O)c6ccc(N[C@H](CCN7CCCOCC7)CSc7ccccc7)c([N+](=O)[O-])c6)cc5)CC4)C3)CC2)C(C)(C)C)cc1` [Compound 55, (2S,4R)-1-((S)-2-(8-(4-(((R)-6-((4-(4-(((4-(((R)-4-(1,4-oxazepan-4-yl)-1-(phenylthio)butan-2-yl)amino)-3-nitrophenyl)sulfonyl)carbamoyl)phenyl)piperazin-1-yl)methyl)-4′-chloro-4-methyl-2,3,4,5-tetrahydro-[1,1′-biphenyl]-4-yl)methyl)piperazin-1-yl)-8-oxooctanamido)-3,3-dimethylbutanoyl)-4-hydroxy-N—((S)-1-(4-(4-methylthiazol-5-yl)phenyl)ethyl)pyrrolidine-2-carboxamide], the IC50 is under 0.02 µM in the experiment on MOLT-4 (setting [1]); 0.011 µM in the experiment with MOLT-4 (MOLT-4, Table 4, 48 h, read-out: MOLT-4 48 h IC50); under 0.02 µM in the experiment with RS4; 11 (setting [2]); 0.0032 µM with RS4; 11 (RS4-11, Table 4, 48 h, read-out: RS4 48 h IC50).

On to `Cc1ncsc1-c1ccc([C@H](C)NC(=O)[C@@H]2C[C@@H](O)CN2C(=O)[C@@H](NC(=O)CN2C3CC2CN(CC(=O)N2CCN(CC4(C)CCC(c5ccc(Cl)cc5)=C(CN5CCN(c6ccc(C(=O)NS(=O)(=O)c7ccc(N[C@H](CCN8CCOCC8)CSc8ccccc8)c(S(=O)(=O)C(F)(F)F)c7)cc6)CC5)C4)CC2)C3)C(C)(C)C)cc1` (some centres unmarked) [Compound 31], for which the IC50 in the experiment with MOLT-4 (setting [3]) and with RS4; 11 (setting [4]) was 0.1 to 0.5 µM in each case.

On to `Cc1ncsc1-c1ccc([C@H](C)NC(=O)[C@@H]2C[C@@H](O)CN2C(=O)[C@@H](NC(=O)CCCCCNC(=O)c2ccc(CN3CCN(C[C@]4(C)CCC(c5ccc(Cl)cc5)=C(CN5CCN(c6ccc(C(=O)NS(=O)(=O)c7ccc(N[C@H](CCN8CCCOCC8)CSc8ccccc8)c(S(=O)(=O)C(F)(F)F)c7)cc6)CC5)C4)CC3)nc2)C(C)(C)C)cc1` [Compound 80], for which the IC50 in the experiment with MOLT-4 (setting [1]) and in the experiment with RS4; 11 (setting [2]) was under 0.02 µM each time.

For `Cc1ncsc1-c1ccc([C@H](C)NC(=O)[C@@H]2C[C@@H](O)CN2C(=O)[C@@H](NC(=O)CNC(=O)c2ccc(N3CCN(CC4(C)CCC(c5ccc(Cl)cc5)=C(CN5CCN(c6ccc(C(=O)NS(=O)(=O)c7ccc(N[C@H](CCN8CCOCC8)CSc8ccccc8)c(S(=O)(=O)C(F)(F)F)c7)cc6)CC5)C4)CC3)nc2)C(C)(C)C)cc1` (some centres unmarked) [Compound 1], the IC50 in the experiment on MOLT-4 (setting [1]) lay in the range of 0.02 to 0.1 µM; in the experiment on RS4; 11 (setting [2]) it was 0.1 to 0.5 µM.

For `Cc1ncsc1-c1ccc([C@H](C)NC(=O)[C@@H]2C[C@@H](O)CN2C(=O)[C@@H](NC(=O)CCCCCCC(=O)N2CCN(C[C@]3(C)CCC(c4ccc(Cl)cc4)=C(CN4CCN(c5ccc(C(=O)NS(=O)(=O)c6ccc(N[C@H](CCN7C[C@H]8COC[C@H]8C7)CSc7ccccc7)c(S(=O)(=O)C(F)(F)F)c6)cc5)CC4)C3)CC2)C(C)(C)C)cc1` [Compound 95], the IC50 in the experiment with MOLT-4 (setting [1]) and in the experiment with RS4; 11 (setting [2]) was under 0.02 µM throughout.

Regarding `Cc1ncsc1-c1ccc([C@H](C)NC(=O)[C@@H]2C[C@@H](O)CN2C(=O)[C@@H](NC(=O)CCCNC(=O)c2ccc(N3CCN(CC4(C)CCC(c5ccc(Cl)cc5)=C(CN5CCN(c6ccc(C(=O)NS(=O)(=O)c7ccc(N[C@H](CCN8CCOCC8)CSc8ccccc8)c(S(=O)(=O)C(F)(F)F)c7)cc6)CC5)C4)CC3)nc2)C(C)(C)C)cc1` (some centres unmarked) [Compound 2], the IC50 in the experiment with MOLT-4 (setting [1]) and in the experiment on RS4; 11 (setting [2]) was 0.02 to 0.1 µM each time.

As to `Cc1ncsc1-c1ccc([C@H](C)NC(=O)[C@@H]2C[C@@H](O)CN2C(=O)[C@@H](NC(=O)CN(C)CCCNC(=O)c2ccc(N3CCN(C[C@]4(C)CCC(c5ccc(Cl)cc5)=C(CN5CCN(c6ccc(C(=O)NS(=O)(=O)c7ccc(N[C@H](CCN8CCCOCC8)CSc8ccccc8)c(S(=O)(=O)C(F)(F)F)c7)cc6)CC5)C4)CC3)nn2)C(C)(C)C)cc1` [Compound 112], the IC50 is 0.02 to 0.1 µM in the experiment with MOLT-4 (setting [3]) and under 0.02 µM in the experiment with RS4; 11 (setting [4]).

As for `Cc1ncsc1-c1ccc([C@H](C)NC(=O)[C@@H]2C[C@@H](O)CN2C(=O)[C@@H](NC(=O)CCCCCCCCC(=O)N2CCN(CCC3(C)CCC(c4ccc(Cl)cc4)=C(CN4CCN(c5ccc(C(=O)NS(=O)(=O)c6ccc(N[C@H](CCN7CCOCC7)CSc7ccccc7)c(S(=O)(=O)C(F)(F)F)c6)cc5)CC4)C3)CC2)C(C)(C)C)cc1` (stereo partly drawn) [Compound 30, (2S,4R)-1-((2S)-2-(10-(4-(2-(4′-chloro-4-methyl-6-((4-(4-(((4-(((R)-4-morpholino-1-(phenylthio)butan-2-yl)amino)-3-((trifluoromethyl)sulfonyl)phenyl)sulfonyl)carbamoyl)phenyl)piperazin-1-yl)methyl)-2,3,4,5-tetrahydro-[1,1′-biphenyl]-4-yl)ethyl)piperazin-1-yl)-10-oxodecanamido)-3,3-dimethylbutanoyl)-4-hydroxy-N—((S)-1-(4-(4-methylthiazol-5-yl)phenyl)ethyl)pyrrolidine-2-carboxamide], the IC50 with MOLT-4 (setting [1]) was in the range of 0.1 to 0.5 µM; in the experiment on RS4; 11 (setting [2]), 0.02 to 0.1 µM.
